Measured values as given in the NIST ThermoML archive (doi:10.1021/je030167i).

Experiment: xn = mol fraction of the nth substance listed
Settings: 101.3 kPa, Liquid

CC1CCCO1 (stereo not given) [2-methyltetrahydrofuran] + CC(C)CO
Settings | kinematic viscosity, 298.15 K [m2/s] | kinematic viscosity, 313.15 K [m2/s] | mass density, 298.15 K [kg/m3] | mass density, 313.15 K [kg/m3]
x2 = 0 | 5.59e-07 | 4.92e-07 | 849.28 | 834.01
x2 = 0.0397 | 5.85e-07 | 5.06e-07 | 847.52 | 832.15
x2 = 0.0951 | 6.17e-07 | 5.31e-07 | 844.97 | 829.82
x2 = 0.1999 | 6.87e-07 | 5.88e-07 | 840.08 | 825.25
x2 = 0.3008 | 7.77e-07 | 6.54e-07 | 835.46 | 820.88
x2 = 0.3982 | 8.96e-07 | 7.47e-07 | 830.71 | 816.54
x2 = 0.4988 | 1.04e-06 | 8.47e-07 | 825.72 | 811.84
x2 = 0.5992 | 1.26e-06 | 9.96e-07 | 820.51 | 807.01
x2 = 0.7013 | 1.58e-06 | 1.22e-06 | 815.04 | 801.97
x2 = 0.7995 | 2.06e-06 | 1.51e-06 | 809.54 | 796.99
x2 = 0.9048 | 2.93e-06 | 2.02e-06 | 803.45 | 791.39
x2 = 0.9557 | 3.55e-06 | 2.36e-06 | 800.39 | 788.49

CC1CCCO1 (stereo not given) [2-methyltetrahydrofuran] + CCC(C)Cl
x2 = 0
Settings | kinematic viscosity [m2/s] | mass density [kg/m3]
298.15 K | 5.59e-07 | 849.28
313.15 K | 4.92e-07 | 834.01

CC1CCCO1 (stereo not given) [2-methyltetrahydrofuran] + CCC(C)O
Settings | kinematic viscosity, 298.15 K [m2/s] | kinematic viscosity, 313.15 K [m2/s] | mass density, 298.15 K [kg/m3] | mass density, 313.15 K [kg/m3]
x2 = 0 | 5.59e-07 | 4.92e-07 | 849.28 | 834.01
x2 = 0.0437 | 5.66e-07 | 4.91e-07 | 847.1 | 831.74
x2 = 0.0915 | 6.07e-07 | 5.06e-07 | 844.81 | 829.48
x2 = 0.1968 | 6.45e-07 | 5.54e-07 | 839.74 | 824.64
x2 = 0.3024 | 7.16e-07 | 6.04e-07 | 834.82 | 820.02
x2 = 0.3993 | 8.06e-07 | 6.7e-07 | 830.17 | 815.81
x2 = 0.5051 | 9.5e-07 | 7.71e-07 | 825.31 | 811.2
x2 = 0.6018 | 1.11e-06 | 8.78e-07 | 820.77 | 806.88
x2 = 0.6999 | 1.39e-06 | 1.05e-06 | 816.27 | 802.66
x2 = 0.8077 | 1.86e-06 | 1.34e-06 | 811.31 | 797.97
x2 = 0.8708 | 2.26e-06 | 1.57e-06 | 808.35 | 795.28
x2 = 0.9361 | 2.9e-06 | 1.86e-06 | 805.28 | 792.38
